Laboratory results from patent publication US20030055065A1, “Tricyclic amide and urea compounds useful for inhibition of G-protein function and for treatment of proliferative diseases” (priority 1993, published 2003).
Where “and” joins values, the source holds several entries; their conditions need not be identical. Equal entries are not always repeated. Where two headings read alike, the source gives them in different places. Marks after values point to notes of the source that are not given here.

Columns and labels:
[1] = biological target: T1, farnesyl protein transferase (FPT), partially purified from rat brain (Rattus norvegicus, UniProt Q02293+Q04631); test: Inhibition of farnesyl protein transferase (transfer of [3H]farnesyl to Ras-CVLS); type: biochemical
T1 construct: were partially purified from rat brain by ammonium sulfate fractionation followed by Q-Sepharose
T1 sequence (Q02293 whole entry, one chain of several): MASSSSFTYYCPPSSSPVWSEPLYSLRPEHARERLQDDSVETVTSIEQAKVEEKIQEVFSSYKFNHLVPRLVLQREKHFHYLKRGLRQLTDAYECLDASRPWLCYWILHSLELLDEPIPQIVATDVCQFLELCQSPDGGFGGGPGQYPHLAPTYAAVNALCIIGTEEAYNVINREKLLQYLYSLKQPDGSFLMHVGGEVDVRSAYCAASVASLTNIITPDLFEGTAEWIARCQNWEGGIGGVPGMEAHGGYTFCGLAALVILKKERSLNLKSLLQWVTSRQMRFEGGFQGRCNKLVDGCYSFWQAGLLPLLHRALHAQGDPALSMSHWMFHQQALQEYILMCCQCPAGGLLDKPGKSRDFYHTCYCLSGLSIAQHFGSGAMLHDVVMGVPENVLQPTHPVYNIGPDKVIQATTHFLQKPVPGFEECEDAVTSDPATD
How it was run: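 Transfer of [3H]farnesyl onto E. coli-expressed, His6-tagged Ras-CVLS was measured after 30 min at room temperature. Radiolabelled Ras was TCA-precipitated on ice and filter-harvested, and inhibition was expressed as percent of DMSO control.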

[2] = biological target: T2, geranylgeranyl protein transferase (GGPT) I (Rattus norvegicus, UniProt P53610+Q04631); test: Inhibition of geranylgeranyl protein transferase I (Ras-CVLL as acceptor); type: biochemical; conditions: enzyme inhibition
T2 construct: were partially purified from rat brain by ammonium sulfate fractionation followed by Q-Sepharose
T2 sequence (P53610 whole entry, one chain of several): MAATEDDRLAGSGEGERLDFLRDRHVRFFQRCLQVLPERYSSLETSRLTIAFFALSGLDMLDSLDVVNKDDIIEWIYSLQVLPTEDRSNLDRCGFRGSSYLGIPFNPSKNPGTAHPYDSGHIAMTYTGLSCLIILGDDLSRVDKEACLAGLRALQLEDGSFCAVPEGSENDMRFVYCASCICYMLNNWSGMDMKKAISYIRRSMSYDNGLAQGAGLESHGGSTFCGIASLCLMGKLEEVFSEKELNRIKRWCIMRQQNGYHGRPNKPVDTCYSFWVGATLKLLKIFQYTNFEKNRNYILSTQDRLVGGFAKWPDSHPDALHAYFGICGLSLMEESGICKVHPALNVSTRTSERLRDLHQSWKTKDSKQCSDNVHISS
Text: 1. In vitro enzyme assays: Inhibition of farnesyl protein transferase and geranylgeranyl protein transferase.
Both farnesyl protein transferase (FPT) and geranylgeranyl protein transferase (GGPT) I were partially purified from rat brain by ammonium sulfate fractionation followed by Q-Sepharose (Pharmacia, Inc.) anion exchange chromatography essentially as described by Yokoyama et al (Yokoyama, K., et al., (1991), A protein geranylgeranyltransferase from bovine brain: Implications for protein prenylation specificity, Proc. Natl. Acad. Sci USA 88: 5302-5306, the disclosure of which is incorporated herein by reference thereto). Human farnesyl protein transferase was also expressed in E. coli, using cDNA clones encoding both the α and β subunits. The methods used were similar to those published (Omer, C. et al., (1993), Characterization of recombinant human farnesyl protein transferase: Cloning, expression, farnesyl diphosphate binding, and functional homology with yeast prenyl-protein transferases, Biochemistry 32:5167-5176). Human farnesyl protein transferase was partially-purified from the soluble protein fraction of E. coli as described above. […] Two forms of val^12-Ha-Ras protein were prepared as substrates for these enzymes, differing in their carboxy terminal sequence. One form terminated in cysteine-valine-leucine-serine (Ras-CVLS) the other in cystein-valine-leucine-leucine (Ras-CVLL). Ras-CVLS is a substrate for the farnesyl protein transferase while Ras-CVLL is a substrate for geranylgeranyl protein transferase I. The cDNAs encoding these proteins were constructed so that the proteins contain an amino-terminal extension of 6 histidine residues. Both proteins were expressed in Escherichia coli and purified using metal chelate affinity chromatography. The radiolabelled isoprenyl pyrophosphate substrates, [^3H]farnesyl pyrophosphate and [3H]geranylgeranyl pyrophosphate, were purchased from DuPont/New England Nuclear.
The geranylgeranyl protein transferase I assay was essentially identical to the farnesyl protein transferase assay described above, with two exceptions: [^3H]geranylgeranylpyrophosphate replaced farnesyl pyrophosphate as the isoprenoid donor and Ras-CVLL was the protein acceptor.

[3] = system: Ras-CVLS processing in COS monkey kidney cells; test: COS cell assay: Ras-CVLS processing (Western blot); type: cell-based; conditions: COS cells, read-out: Inhibition of Ras Processing IC50
How it was run: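 COS cells electroporated with Ras-CVLS (farnesyl transferase substrate) cDNA, with drug-containing fresh medium added at 24 h and cells examined at 48 h. TCA-precipitated cellular protein was resolved by SDS gel and immunoblotted with anti-p21 Ras monoclonal and HRP anti-rat IgG to monitor Ras processing.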

[4] = system: Normal human HEPM fibroblasts; test: Cell Mat Assay: density of mat cells (mIC50); type: cell-based
How it was run: (§1)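 Serial compound dilutions added 24 h after planting T24-BAG4 cells onto a mat of normal cells, then 14 d colony growth; monolayers glutaraldehyde-fixed and tumor cells X-Gal stained. tIC50 and mIC50 from microscope counts of colonies, cells per colony and mat cell density.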

[5] = system: SW620 (human colon adenocarcinoma [lymph node metastasis]); test: In vivo anti-tumor study, SW620; design: species or system athymic nu/nu female mice; percent inhibition of tumor growth relative to vehicle controls: concentration or dose not given beside the values; conditions: po; for Average % Tumor Inhibition / inhibition in vivo at 100 mg/kg: SW620 tumor, 10/wk, x4; for inhibition in vivo at 100 mg/kg: Mus musculus, SW-620, po; for percent inhibition of tumor growth relative to vehicle controls: s.c. tumor SW-620, BID, 1-5, ×4
[6] = system: T24-BAG4 human bladder carcinoma cells expressing an activated H-ras gene; test: Cell Mat Assay: tumor cell colony inhibition (tIC50); type: cell-based; conditions: inhibition of tumor cell growth
How it was run: as §1

[7] = system: M27 (mouse Lewis lung carcinoma); test: In vivo anti-tumor study, M27; design: species or system athymic nu/nu female mice; conditions: M27 tumor, 100 MPK, po, 10/wk
Text: In vivo Anti-tumor Studies

[8] = system: A431 (human epidermal carcinoma); test: In vivo anti-tumor study, A431; design: species or system athymic nu/nu female mice; concentration or dose not given beside the values; conditions: s.c. tumor A431; po, BID, 1-6, ×4
[9] = system: C-f-1 (mouse fibroblast transformed with c-fos oncogene); test: In vivo anti-tumor study, C-f-1; design: species or system athymic nu/nu female mice; concentration or dose not given beside the values; conditions: s.c. tumor C-f-1; po, BID, 1-5, ×4
[10] = Ras-CVLS farnesylation, partially purified rat brain FPT, read-out: FPT IC50
[11] = enzyme inhibition, read-out: FPT IC50

| SMILES | IC50 [1, 10] | IC50 [2] | IC50 ([3]; Primates, COS) | IC50 ([4]; Homo sapiens, Fibroblast) | melting point | IC50 ([6]; Homo sapiens) | also measured |
| --- | --- | --- | --- | --- | --- | --- | --- |
| O=C(Nc1ccccn1)N1CCN(C2c3ccc(Cl)cc3CCc3cccnc32)CC1 (centres unmarked) [187 (6.8)] | 950 nM | > 46 µM |  |  |  |  | IC50 [3]: 1.3 µM; IC50 [4]: > 50 µM and 50 µM; Average % Tumor Inhibition ([5]; 100 MPK, listed as Ex. 187 (6.8), 100 mg/kg): 11% and 21% |
| CN1C(=O)CC[C@H](C(=O)N2CCC(=C3c4ccc(Cl)cc4CCc4cccnc43)CC2)[C@H]1c1ccc(F)cc1 [Example 4] | 1000 nM and 800 nM |  |  |  |  |  | inhibition in vivo at 100 mg/kg ([5]; 100 MPK): 2% |
| O=C1CCC(C(=O)N2CCC(=C3c4ccc(Cl)cc4CCc4cccnc43)CC2)CC1 [Example 5] | 1700 nM | > 46 µM | 9.2 µM | > 50 µM | 200 °C |  | IC50 [1, 11]: 1700 nM; IC50 [3]: > 12 µM; IC50 [4]: 100 µM |
| O=C(Cc1cccc([N+](=O)[O-])c1)N1CCC(=C2c3ccc(Cl)cc3CCc3cccnc32)CC1 [Example 45] | 1200 nM and 870 nM |  | 4.2 µM | > 50 µM | 94.3 to 95.5 °C | 6.3 µM | Average % Tumor Inhibition ([7]; x3): 0% |
| Cc1ccc(CC(=O)N2CCC(=C3c4ccc(Cl)cc4CCc4cccnc43)CC2)cc1 [Example 47] | 1300 nM and 1010 nM |  |  |  |  |  | IC50 [3]: 11.1 µM; IC50 [6]: 12.5 µM; IC50 [4]: > 50 µM; Average % Tumor Inhibition ([7]; x3): 19% |
| O=C(Cc1ccncc1)N1CCN(C2c3ccc(Cl)cc3CCc3cccnc32)CC1 (centres unmarked) [Example 75] |  |  |  | > 50 µM |  | 2.5 µM | IC50 ([1]; FPT IC50, Ras-CVLS farnesylation, partially purified rat brain FPT): 360 nM and 160 nM; Average % Tumor Inhibition ([7]; x4): 0%; percent inhibition of tumor growth relative to vehicle controls [8]: 34.5%; percent inhibition of tumor growth relative to vehicle controls [5]: 43.4%; percent inhibition of tumor growth relative to vehicle controls [9]: 20% |
| O=C(C(c1ccccc1)c1ccccc1)N1CCN(C2c3ccc(Cl)cc3CCc3cccnc32)CC1 (centres unmarked) [Example 79] | 2500 nM |  | 5.1 µM | > 50 µM |  | 12.5 µM | IC50 [1, 11]: 2500 nM; percent inhibition of tumor growth relative to vehicle controls [8]: 0%; percent inhibition of tumor growth relative to vehicle controls [5]: 26.7%; percent inhibition of tumor growth relative to vehicle controls [9]: 25% |
| O=C(Cc1cccnc1)N1CCC(C2c3ccc(Cl)cc3CCc3cccnc32)CC1 (centres unmarked) [Example 82A, 4-(8-Chloro-6,11-dihydro-5H-benzo-[5,6]cyclohepta(1,2-b]pyridin-11-yl)-1-[(3-pyridinyl)acetyl]-piperidine] |  |  |  |  | 81.7 to 82 °C |  | inhibition in vivo at 100 mg/kg ([5]; 100 MPK): 27% |
| S=C(c1ccncc1)N1CCC(=C2c3ccc(Cl)cc3CCc3cccnc32)CC1 [Example 88] | 1000 nM |  |  |  |  |  | IC50 [3]: > 12 µM; IC50 [4]: > 50 µM; Average % Tumor Inhibition ([7]; x4): 19%; Average % Tumor Inhibition ([5]; 25 MPK, listed as Ex. 88, 25 mg/kg): 4% and 0%; Average % Tumor Inhibition ([5]; 50 MPK): 30%; Average % Tumor Inhibition ([5]; 100 MPK, listed as Ex. 88, 100 mg/kg): 43.25* % and 38% and 37% and 27.4* % and 28% |
| O=C(Cc1ccc(O)c(O)c1)N1CCC(=C2c3ccc(Cl)cc3CCc3cccnc32)CC1 [Example 127] | 3500 nM and 2700 nM |  |  | > 50 µM |  | 6.3 µM | Average % Tumor Inhibition ([7]; x3): 22%; inhibition in vivo at 100 mg/kg ([5]; 100 MPK): 25% |
| CC(=O)N1CCC(C(=O)N2CCN(C3c4ccc(Cl)cc4CCc4cccnc43)CC2)CC1 (centres unmarked) [Example 192] | 1240 nM | > 43 µM | 4.9 µM | > 50 µM |  | 25 µM | IC50 ([6]; listed as 192 (5.65)): 37 µM; inhibition in vivo at 100 mg/kg ([5]; 100 MPK): 29% |
| O=C(Cc1cccnc1)N1CCC(C2c3ccc(Cl)cc3CCc3ccc[n+]([O-])c32)CC1 (centres unmarked) [Example 235] | 3570 nM |  | 9.1 µM | > 50 µM | 61.8 to 62.3 °C | 12.5 µM |  |
| O=C(Cc1ccncc1)N1CCC(C2c3ccc(Cl)cc3CCc3ccc[n+]([O-])c32)CC1 (centres unmarked) [Example 236] | 1480 nM | > 45 µM | 3.5 µM | > 50 µM | 116.7 to 117.6 °C | 4 µM |  |
| O=C(Cc1cccnc1)N1CCC(=C2c3ccc(Cl)cc3CCc3cc(Br)cnc32)CC1 [Example 247] | 160 nM | > 40 µM | > 3.9 µM | > 50 µM | 92 to 93 °C |  | IC50 ([3]; listed as 247 (5.122)): 3.5 µM |
| O=C(Cc1cccnc1)N1CCC(=C2c3ccc(Cl)cc3CCc3c(Cl)ccnc32)CC1 [Example 250] | 950 nM |  | 8.6 µM | > 50 µM | 59.8 to 63.5 °C | 18 µM |  |
| Nc1cnc2c(c1)CCc1cc(Cl)ccc1C2=C1CCN(C(=O)Cc2ccncc2)CC1 [Example 402] |  |  | > 10 µM | > 25 µM | 133.2 to 133.4 °C | 18 µM | IC50 ([1]; FPT IC50, enzyme inhibition): 1000 nM |
| CN1CCC(CC(=O)N2CCC(=C3c4ccc(Cl)cc4CCc4c3ncc(Br)c4Cl)CC2)CC1 [Example 413] |  | > 35 µM | 1.5 µM | 10 µM | 105 °C (dec.) | > 6.25 µM | IC50 [1, 11]: 103 nM |
